From patent US10633704B2, “Diagnostic and immunotherapy compositions and methods for disease states mediated by inhibitor-resistant CD8 T-cells” (priority 2010, dated 2020)
Entries after “also recorded” stand apart in the source; their conditions may differ.

System: CD8bm12-1 T cell clone
Assay: Proliferation assay (3H-thymidine) of CsA/RAPA-resistant CD8 T cell clone CD8bm12-1 activated by immobilized anti-CD3 without or with anti-CD28
Format: cell-based, mouse (C57BL/6)
Method: Proliferation assays were done with anti-CD3 (145-2Cl 1) without or with anti-CD28 (37.51). Antibodies in 50 μl of PBS/well were used to coat 96-well tissue culture plates (Costar) overnight at 4° C. Antibodies were shaken off and wells washed 1× with 150 μl of RPMI complete media prior to their use in proliferation assays. Experimental wells were pulsed with 0.5 μCi/well ^3H-thymidine (ICN, Costa Mesa, Calif.) for 10-12 hours at 24-36 or 36-48 hours of the culture cycle. Cyclosporine A (Sigma Chemical Co.; St. Louis, Mo.) dissolved in 200 proof ethanol and CH-223191 (Calbiochem; San Diego, Calif.) dissolved in dimethylsulfoxide were used at indicated concentrations. The no treatment controls in each experiment included vehicle controls for both ethanol and dimethylsulfoxide.
FIGS. 6A and 6B show proliferation plots of CD8bm1 (▪) and CD8bm12-1 (●), both activated by immobilized anti-CD3 and exposed to a full range of cyclosporine A (the results shown in FIGS. 6A and 6B result from two separate experiments conducted).

Question: With `Cc1ccccc1N=Nc1ccc(NC(=O)c2ccnn2C)c(C)c1` [CH-223191] as the molecule, how does the “effect on proliferation of CD8bm12-1” value (media with 1 ug/ml CsA, anti-CD3, CH-223191 3 uM) read?
Answer: Its value is “no effect”.

Question: What about the “effect on proliferation of CD8bm12-1” value (media with 1 ug/ml CsA, anti-CD3, CH-223191 10 uM) of the same molecule?
Answer: The value was “moderate inhibitory effect”.

Question: And the “effect on proliferation of CD8bm12-1” value (media with 1 ug/ml CsA, anti-CD3, CH-223191 30 uM)?
Answer: The value was “dramatic inhibitory effect; also recorded: completely blocked”.

Question: And the “effect on proliferation of CD8bm12-1” value (media with 1 ug/ml CsA, anti-CD3 and anti-CD28, CH-223191 30 uM)?
Answer: Its value is “completely blocked proliferation”.

Question: And the “effect on proliferation of CD8bm12-1” value (media without CsA, anti-CD3, CH-223191 at 30 uM, 10 uM or 3 uM)?
Answer: The value was “no discernable negative effect”.

Question: What about the “effect on proliferation of CD8bm12-1” value (media without CsA, anti-CD3 and anti-CD28, CH-223191) of the same molecule?
Answer: Its value is “little discernable effect”.
